Source: patent publication US10131652B2, “Pyrimidinyloxy benzene derivatives as herbicides” (E. I. DU PONT DE NEMOURS AND COMPANY, priority 2014, dated 2018)

Experiments:
Type in all cases: in vivo
[1] = system: blackgrass (Alopecurus myosuroides); test: Test B postemergence plant response; details: 0 to 100 scale, 0 no effect, 100 complete control
Procedure, shortened: (§1)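 Visual injury ratings, 0 = no effect to 100 = complete control, versus untreated controls approximately 10 days after postemergence spraying in greenhouse. Plants were at one- to two-leaf stage, 2 to 10 cm tall, in loam soil/sand blend; a dash denotes no result.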

[2] = system: galium (catchweed bedstraw, Galium aparine); test: Test B postemergence plant response; details: 0 to 100 scale, 0 no effect, 100 complete control
Procedure, shortened: as §1

[3] = system: Italian ryegrass (Lolium multiflorum); test: Test D pre-/postemergence plant response
Procedure, shortened: (§2)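 0 = no effect, 100 = complete control: plants were scored this way by visual comparison with controls 13 to 15 days post-treatment. Application was preemergence to sown loam/sand pots or postemergence to 2–18 cm seedlings in peat-based mix.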

[4] = system: barnyardgrass (Echinochloa crus-galli); test: Test D pre-/postemergence plant response
Procedure, shortened: as §2

corn (Zea mays) = test: Test D pre-/postemergence plant response
Procedure, shortened: as §2

[5] = system: giant foxtail (Setaria faberii); test: Test D pre-/postemergence plant response
Procedure, shortened: as §2

[6] = system: morningglory (Ipomoea coccinea); test: Test D pre-/postemergence plant response
Procedure, shortened: as §2

[7] = system: oilseed rape (Brassica napus); test: Test D pre-/postemergence plant response
Procedure, shortened: as §2

[8] = system: pigweed (Amaranthus retroflexus); test: Test D pre-/postemergence plant response
Procedure, shortened: as §2

[9] = system: ragweed (common ragweed, Ambrosia elatior); test: Test D pre-/postemergence plant response
Procedure, shortened: as §2

soybean (Glycine max) = test: Test D pre-/postemergence plant response
Procedure, shortened: as §2

[10] = system: waterhemp (common waterhemp, Amaranthus rudis); test: Test D pre-/postemergence plant response
Procedure, shortened: as §2

[11] = system: yellow nutsedge (Cyperus esculentus); test: Test D pre-/postemergence plant response
Procedure, shortened: as §2

[12] = system: chickweed (common chickweed, Stellaria media); test: Test D postemergence plant response; details: for Chickweed plant response rating: scale 0 to 100 (0 no effect, 100 complete control); for Plant response rating, Chickweed: scale 0 to 100, 0 no effect, 100 complete control
Procedure, shortened: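 Visual scoring from 0 (no effect) to 100 (complete control), relative to controls, 13–15 days after treatment in the greenhouse. Compounds were applied postemergence at the 1- to 4-leaf stage (2–18 cm) to potted plants in peat-based medium.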

[13] = Postemergence, 16 g ai/ha, scale 0 to 100 (0 no effect, 100 complete control)
[14] = Postemergence, 31 g ai/ha, scale 0 to 100 (0 no effect, 100 complete control)
[15] = Postemergence, 62 g ai/ha, scale 0 to 100, 0 no effect, 100 complete control
[16] = Postemergence, 125 g ai/ha, scale 0 to 100, 0 no effect, 100 complete control
[17] = Preemergence, 16 g ai/ha, scale 0 to 100 (0 no effect, 100 complete control)
[18] = Preemergence, 31 g ai/ha, scale 0 to 100 (0 no effect, 100 complete control)
[19] = Preemergence, 62 g ai/ha, scale 0 to 100 (0 no effect, 100 complete control)

## Fc1cccc(Oc2ncc(Br)cn2)c1-c1cc(C(F)F)on1 [Compound 118]
[1]; 31 g ai/ha, Postemergence
  Plant response rating, Blackgrass: 60
[1]; 125 g ai/ha, postemergence
  Plant response rating, Blackgrass: 100
[2]; 31 g ai/ha, Postemergence
  Plant response rating, Galium: 100
[2]; 125 g ai/ha, postemergence
  Plant response rating, Galium: 100
[3]; [13]
  Ryegrass, Italian plant response rating: 0
[3]; [14]
  Ryegrass, Italian plant response rating: 0
[3]; [15]
  Plant response rating, Ryegrass, Italian: 5
[3]; [16]
  Plant response rating, Ryegrass, Italian: 5
[3]; Preemergence, 125 g ai/ha
  Plant response rating (scale 0 to 100), Ryegrass, Italian: 60
[3]; [17]
  Plant response rating, Ryegrass, Italian: 0
[3]; [18]
  Plant response rating, Ryegrass, Italian: 5
[3]; [19]
  Plant response rating, Ryegrass, Italian: 65
[4]; [13]
  Barnyardgrass plant response rating: 10
[4]; [14]
  Barnyardgrass plant response rating: 20
[4]; [15]
  Plant response rating, Barnyardgrass: 20
[4]; [16]
  Plant response rating, Barnyardgrass: 30
[4]; Preemergence, 62 g ai/ha
  Plant response rating (scale 0 to 100), Barnyardgrass: 100
[4]; Preemergence, 125 g ai/ha
  Plant response rating (scale 0 to 100), Barnyardgrass: 100
[4]; [17]
  Plant response rating, Barnyardgrass: 10
[4]; [18]
  Plant response rating, Barnyardgrass: 60
Corn (Zea mays); [13]
  Corn plant response rating: 5
Corn (Zea mays); [14]
  Corn plant response rating: 10
Corn (Zea mays); [15]
  Plant response rating, Corn: 15
Corn (Zea mays); [16]
  Plant response rating, Corn: 15
Corn (Zea mays); Preemergence, 125 g ai/ha
  Plant response rating (scale 0 to 100), Corn: 30
Corn (Zea mays); [17]
  Plant response rating, Corn: 0
Corn (Zea mays); [18]
  Plant response rating, Corn: 5
Corn (Zea mays); [19]
  Plant response rating, Corn: 30
[5]; [13]
  Foxtail, Giant plant response rating: 5
[5]; [14]
  Foxtail, Giant plant response rating: 15
[5]; [15]
  Plant response rating, Foxtail, Giant: 10
[5]; [16]
  Plant response rating, Foxtail, Giant: 20
[5]; Preemergence, 125 g ai/ha
  Plant response rating (scale 0 to 100), Foxtail, Giant: 100
[5]; [17]
  Plant response rating, Foxtail, Giant: 98
[5]; [18]
  Plant response rating, Foxtail, Giant: 100
[5]; [19]
  Plant response rating, Foxtail, Giant: 100
[6]; [13]
  Morningglory plant response rating: 85
[6]; [14]
  Morningglory plant response rating: 85
[6]; [15]
  Plant response rating, Morningglory: 85
[6]; [16]
  Plant response rating, Morningglory: 80
[6]; Preemergence, 125 g ai/ha
  Plant response rating (scale 0 to 100), Morningglory: 90
[6]; [17]
  Plant response rating, Morningglory: 30
[6]; [18]
  Plant response rating, Morningglory: 5
[6]; [19]
  Plant response rating, Morningglory: 85
[7]; [13]
  Oilseed Rape plant response rating: 5
[7]; [14]
  Oilseed Rape plant response rating: 30
[7]; [15]
  Plant response rating, Oilseed Rape: 60
[7]; [16]
  Plant response rating, Oilseed Rape: 95
[7]; Preemergence, 125 g ai/ha
  Plant response rating (scale 0 to 100), Oilseed Rape: 100
[7]; [17]
  Plant response rating, Oilseed Rape: 85
[7]; [18]
  Plant response rating, Oilseed Rape: 98
[7]; [19]
  Plant response rating, Oilseed Rape: 100
[8]; [13]
  Pigweed plant response rating: 80
[8]; [14]
  Pigweed plant response rating: 95
[8]; [15]
  Plant response rating, Pigweed: 95
[8]; [16]
  Plant response rating, Pigweed: 98
[8]; Preemergence, 125 g ai/ha
  Plant response rating (scale 0 to 100), Pigweed: 100
[8]; [17]
  Plant response rating, Pigweed: 100
[8]; [18]
  Plant response rating, Pigweed: 100
[8]; [19]
  Plant response rating, Pigweed: 100
[9]; [13]
  Ragweed plant response rating: 80
[9]; [14]
  Ragweed plant response rating: 45
[9]; [15]
  Plant response rating, Ragweed: 55
[9]; [16]
  Plant response rating, Ragweed: 85
[9]; Preemergence, 125 g ai/ha
  Plant response rating (scale 0 to 100), Ragweed: 85
[9]; [17]
  Plant response rating, Ragweed: 85
[9]; [18]
  Plant response rating, Ragweed: 20
[9]; [19]
  Plant response rating, Ragweed: 70
Soybean (Glycine max); [13]
  Soybean plant response rating: 75
Soybean (Glycine max); [14]
  Soybean plant response rating: 60
Soybean (Glycine max); [15]
  Plant response rating, Soybean: 60
Soybean (Glycine max); [16]
  Plant response rating, Soybean: 90
Soybean (Glycine max); Preemergence, 125 g ai/ha
  Plant response rating (scale 0 to 100), Soybean: 95
Soybean (Glycine max); [17]
  Plant response rating, Soybean: 80
Soybean (Glycine max); [18]
  Plant response rating, Soybean: 75
Soybean (Glycine max); [19]
  Plant response rating, Soybean: 80
[10]; [13]
  Waterhemp plant response rating: 85
[10]; [14]
  Waterhemp plant response rating: 90
[10]; [15]
  Plant response rating, Waterhemp: 95
[10]; [16]
  Plant response rating, Waterhemp: 98
[10]; Preemergence, 125 g ai/ha
  Plant response rating (scale 0 to 100), Waterhemp: 100
[10]; [17]
  Plant response rating, Waterhemp: 100
[10]; [18]
  Plant response rating, Waterhemp: 100
[10]; [19]
  Plant response rating, Waterhemp: 100
[11]; [13]
  Nutsedge, Yellow plant response rating: 5
[11]; [14]
  Nutsedge, Yellow plant response rating: 5
[11]; [15]
  Plant response rating, Nutsedge, Yellow: 10
[11]; [16]
  Plant response rating, Nutsedge, Yellow: 10
[11]; Preemergence, 125 g ai/ha
  Plant response rating (scale 0 to 100), Nutsedge, Yellow: 65
[11]; [17]
  Plant response rating, Nutsedge, Yellow: 0
[11]; [18]
  Plant response rating, Nutsedge, Yellow: 0
[11]; [19]
  Plant response rating, Nutsedge, Yellow: 15
[12]; 16 g ai/ha
  Chickweed plant response rating: 75
[12]; 31 g ai/ha
  Chickweed plant response rating: 70
[12]; 62 g ai/ha
  Plant response rating, Chickweed: 90
[12]; 125 g ai/ha
  Plant response rating, Chickweed: 98
